From patent US20240383843A1, “MC3-Type Lipids” (NanoVation Therapeutics Inc., priority 2021, published 2024)
Converted amounts (≈) assume the structure as drawn.

How the values were obtained:
FVII gene = conditions: mice, siRNA formulation; Jayaraman et al., 2012; cited from earlier work
[1] = test system: 22Rv1 cells modified to stably express luciferase; experiment: Luciferase knockdown by siRNA-containing LNPs in 22Rv1 cells stably expressing luciferase; assay type: cell-based; conditions: Homo sapiens, siRNA-LNP 50/10/38.5/1.5 mol %, N/P 3, read-out: half maximal effective siRNA concentration (EC50)
Procedure: The LNPs contain 50/10/38.5/1.5 mol % of ionizable lipid/DSPC/chol/PEG-DMG (N/P=3) and the siRNA encodes luciferase.
An siRNA targeted against firefly luciferase purchased from Integrated DNA Technologies (IDT, Coralville, IA) was used to assess ability of LNP to knockdown firefly luciferase in a cell line.
LNP formulations containing the ionizable lipids, nor-MC3 or MC3, DSPC, cholesterol, and PEG-DMG were prepared containing siRNA encoding luciferase as described above. The lipid nanoparticles comprise 50/10/38.5/1.5 mol % of ionizable lipid/DSPC/chol/PEG-DMG and the nitrogen-to-phosphorus ratio (N/P) was 3.

Row | EC50 [1] [µg/mL] | Compound | ED50 for FVII gene silencing (FVII gene) [mg/kg]
1 |  | CCCCC/C=C\C/C=C\CCCCCCCCC1(CCCCCCCC/C=C\C/C=C\CCCCC)OCC(CCN(C)C)O1 (centres unmarked) [KC2] | 0.1
2 | 0.164 (≈ 0.268 µM) | CCCCC/C=C\C/C=C\CCCCCCCC(CCCCCCC/C=C\C/C=C\CCCCC)OC(=O)CCCN(C)C [nor-MC3, (6Z,9Z,26Z,29Z)-Pentatriaconta-6,9,26,29-tetraen-18-yl 4-(dimethylamino)butanoate] | 
